{"source": "patent US7473787B2", "about": "“Bicyclic [3.1.0] derivatives as glycine transporter inhibitors” (Pfizer Inc, priority 2003, dated 2009)", "origin": "cited, not measured here", "test_system": "NMDA receptor", "details": "effect blocked by a specific NMDA-site antagonist and a glycine-site antagonist"}
{"smiles": "CN(CCC(Oc1ccc(-c2ccccc2)cc1)c1ccc(F)cc1)CC(=O)O", "note": "(stereo not shown) [NFPS]", "values": [{"measurement": "effect on postsynaptic current driven by the NMDA receptor", "result": "increased the postsynaptic current"}]}
